Test results: ChEMBL document CHEMBL4340547, “Synthesis and SAR development of quinoline analogs as novel P2X7 receptor antagonists” (Bioorg Med Chem Lett, 2019)

How the values were obtained:
P2X purinoceptor 7 [1] = target: T1, P2X purinoceptor 7 (Homo sapiens, UniProt Q99572); test: Antagonist activity at P2X7R in LPS-stimulated human THP1 cells assessed as inhibition of BzATP-induced IL-1beta release preincubated for 30 mins followed by BzATP stimulation and measured after 30 mins by sandwich ELISA
T1 sequence (Q99572 whole entry): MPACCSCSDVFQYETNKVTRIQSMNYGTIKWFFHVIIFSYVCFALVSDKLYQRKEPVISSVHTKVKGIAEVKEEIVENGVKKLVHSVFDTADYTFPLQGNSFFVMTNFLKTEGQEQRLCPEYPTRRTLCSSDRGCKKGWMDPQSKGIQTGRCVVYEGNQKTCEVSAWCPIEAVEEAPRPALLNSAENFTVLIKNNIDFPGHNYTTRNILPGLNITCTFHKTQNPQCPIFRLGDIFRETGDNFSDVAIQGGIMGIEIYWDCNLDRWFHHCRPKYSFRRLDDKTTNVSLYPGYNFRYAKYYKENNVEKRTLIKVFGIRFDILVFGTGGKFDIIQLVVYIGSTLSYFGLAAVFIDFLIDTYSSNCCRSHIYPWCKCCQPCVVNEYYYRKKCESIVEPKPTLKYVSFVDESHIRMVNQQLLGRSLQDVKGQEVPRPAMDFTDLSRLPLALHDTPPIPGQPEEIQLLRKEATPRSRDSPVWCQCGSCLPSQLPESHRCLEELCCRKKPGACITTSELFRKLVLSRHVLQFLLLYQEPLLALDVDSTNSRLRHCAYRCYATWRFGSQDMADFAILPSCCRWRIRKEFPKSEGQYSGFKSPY

[2] = Clearance in mouse at 0.2 mg/kg, iv or 0.5 mg/kg, po; assay type: ADME, organism-based; details: in vivo
[3] = Protein binding in mouse brain assessed as unbound fraction at 5 mg/kg, po; assay type: ADME, organism-based
[4] = target: Voltage-gated inwardly rectifying potassium channel KCNH2 (Homo sapiens, UniProt Q12809); test: Activity at human ERG
Sequence of Voltage-gated inwardly rectifying potassium channel KCNH2 (Q12809 whole entry): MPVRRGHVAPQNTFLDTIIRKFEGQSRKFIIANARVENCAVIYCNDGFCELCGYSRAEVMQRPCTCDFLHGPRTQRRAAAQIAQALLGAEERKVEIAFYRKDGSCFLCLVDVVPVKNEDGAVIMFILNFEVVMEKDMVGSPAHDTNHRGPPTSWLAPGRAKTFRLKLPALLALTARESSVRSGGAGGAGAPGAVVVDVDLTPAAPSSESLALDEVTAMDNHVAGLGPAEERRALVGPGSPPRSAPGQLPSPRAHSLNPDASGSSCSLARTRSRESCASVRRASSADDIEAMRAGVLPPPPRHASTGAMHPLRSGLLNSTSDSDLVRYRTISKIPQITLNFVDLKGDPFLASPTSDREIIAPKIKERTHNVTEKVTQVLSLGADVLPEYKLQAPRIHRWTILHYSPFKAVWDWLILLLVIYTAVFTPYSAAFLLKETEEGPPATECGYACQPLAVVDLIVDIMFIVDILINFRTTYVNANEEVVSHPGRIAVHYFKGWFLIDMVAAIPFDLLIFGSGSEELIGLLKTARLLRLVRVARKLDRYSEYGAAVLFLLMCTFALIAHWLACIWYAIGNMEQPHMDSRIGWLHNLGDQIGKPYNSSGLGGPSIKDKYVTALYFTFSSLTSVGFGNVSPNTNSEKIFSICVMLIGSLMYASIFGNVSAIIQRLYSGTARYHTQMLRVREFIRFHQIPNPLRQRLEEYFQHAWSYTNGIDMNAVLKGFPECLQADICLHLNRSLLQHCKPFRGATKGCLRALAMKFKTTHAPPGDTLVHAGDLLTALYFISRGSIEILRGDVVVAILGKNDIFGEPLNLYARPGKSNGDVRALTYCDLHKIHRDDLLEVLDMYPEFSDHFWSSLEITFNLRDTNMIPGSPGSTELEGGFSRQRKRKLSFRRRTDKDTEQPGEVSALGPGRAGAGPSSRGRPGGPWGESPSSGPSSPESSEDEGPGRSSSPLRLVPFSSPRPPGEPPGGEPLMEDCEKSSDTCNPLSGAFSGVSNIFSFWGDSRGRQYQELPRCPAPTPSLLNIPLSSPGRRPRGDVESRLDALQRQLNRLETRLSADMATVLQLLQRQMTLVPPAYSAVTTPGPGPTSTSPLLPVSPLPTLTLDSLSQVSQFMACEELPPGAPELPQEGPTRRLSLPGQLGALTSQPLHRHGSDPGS

[5] = Protein binding in human plasma assessed as unbound fraction; assay type: ADME, cell-free
P2X purinoceptor 7 [6] = target: T1, P2X purinoceptor 7; test: Antagonist activity at human P2X7 receptor expressed in HEK293 cells assessed as inhibition of BzATP-induced YO PRO dye uptake preincubated for 20 mins followed by YO PRO dye and BzATP addition measured after 30 mins by fluorescence assay; assay type: cell-based
[7] = Dose normalized AUC in mouse at 0.2 mg/kg, iv; assay type: ADME, organism-based; details: in vivo
[8] = Dose normalized Cmax in mouse at 0.5 mg/kg, po; assay type: ADME, organism-based; details: in vivo
[9] = Intrinsic clearance in human liver microsomes; assay type: ADME, Microsome; details: read-out: CLH
MDR [10] = test: Efflux ratio of apparent permeability in MDCK cells expressing MDR; assay type: ADME, cell-based, Canis lupus familiaris; details: dog, MDCK-MDR1
[11] = AUC in mouse brain at 5 mg/kg, po; assay type: ADME, organism-based
[12] = AUC in mouse plasma at 5 mg/kg, po; assay type: ADME, organism-based
MDR [13] = test: Apparent permeability across apical to basolateral side in MDCK cells expressing MDR; assay type: ADME, cell-based, Canis lupus familiaris; details: dog, MDCK-MDR1
[14] = Unbound brain to plasma concentration ratio in mouse at 5 mg/kg, po; assay type: ADME, organism-based; details: read-out: K(p,uu,brain)
[15] = Dose normalized Cmax in mouse at 0.2 mg/kg, iv; assay type: ADME, organism-based; details: in vivo
P2X purinoceptor 7 [16] = target: T2, P2X purinoceptor 7 (Rattus norvegicus, UniProt Q64663); test: Antagonist activity at rat P2X7 receptor assessed as inhibition of BzATP-induced YO PRO dye uptake preincubated for 20 mins followed by YO PRO dye and BzATP addition measured after 30 mins by fluorescence assay
T2 sequence (Q64663 whole entry): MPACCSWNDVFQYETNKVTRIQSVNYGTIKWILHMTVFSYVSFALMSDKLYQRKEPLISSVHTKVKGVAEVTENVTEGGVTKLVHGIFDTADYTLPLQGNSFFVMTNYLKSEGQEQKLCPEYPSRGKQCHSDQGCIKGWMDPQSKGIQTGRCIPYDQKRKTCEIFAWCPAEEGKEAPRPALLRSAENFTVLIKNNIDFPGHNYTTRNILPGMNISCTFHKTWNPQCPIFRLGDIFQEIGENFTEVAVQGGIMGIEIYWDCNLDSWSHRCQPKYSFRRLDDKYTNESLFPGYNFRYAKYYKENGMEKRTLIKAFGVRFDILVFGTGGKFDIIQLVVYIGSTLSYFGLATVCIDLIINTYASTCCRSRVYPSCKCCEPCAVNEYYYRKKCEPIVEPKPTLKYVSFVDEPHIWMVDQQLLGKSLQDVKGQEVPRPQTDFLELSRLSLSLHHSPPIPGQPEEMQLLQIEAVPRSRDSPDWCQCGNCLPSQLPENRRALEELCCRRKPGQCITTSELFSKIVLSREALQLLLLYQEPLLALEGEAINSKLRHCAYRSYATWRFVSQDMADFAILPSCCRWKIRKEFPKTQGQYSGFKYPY

[17] = Protein binding in rat plasma; assay type: ADME, cell-free; details: read-out: PPB
P2X purinoceptor 7 [18] = target: T3, P2X purinoceptor 7 (Mus musculus, UniProt Q9Z1M0); test: Antagonist activity at mouse P2X7 receptor assessed as inhibition of BzATP-induced YO PRO dye uptake preincubated for 20 mins followed by YO PRO dye and BzATP addition measured after 30 mins by fluorescence assay
T3 sequence (Q9Z1M0 whole entry): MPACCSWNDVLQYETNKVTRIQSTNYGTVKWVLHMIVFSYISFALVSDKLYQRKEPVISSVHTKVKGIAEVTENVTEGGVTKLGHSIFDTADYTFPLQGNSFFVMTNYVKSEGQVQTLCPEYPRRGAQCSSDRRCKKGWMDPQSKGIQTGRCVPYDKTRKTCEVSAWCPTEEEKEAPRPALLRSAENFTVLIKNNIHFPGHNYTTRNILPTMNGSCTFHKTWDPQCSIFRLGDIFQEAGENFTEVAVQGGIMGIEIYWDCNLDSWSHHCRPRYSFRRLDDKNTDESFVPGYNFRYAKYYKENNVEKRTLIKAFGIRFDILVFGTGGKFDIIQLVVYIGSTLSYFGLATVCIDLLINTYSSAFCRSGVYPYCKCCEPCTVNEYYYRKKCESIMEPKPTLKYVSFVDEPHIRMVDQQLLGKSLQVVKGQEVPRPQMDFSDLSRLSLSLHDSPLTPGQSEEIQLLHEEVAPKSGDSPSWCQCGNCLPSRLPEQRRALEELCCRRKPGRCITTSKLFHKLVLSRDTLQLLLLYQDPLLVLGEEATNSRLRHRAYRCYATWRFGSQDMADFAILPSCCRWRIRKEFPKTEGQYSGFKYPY

[19] = Protein binding in mouse plasma; assay type: ADME, cell-free; details: read-out: PPB
[20] = Oral bioavailability in mouse at 0.5 mg/kg; assay type: ADME, organism-based; details: in vivo
[21] = Protein binding in mouse plasma assessed as unbound fraction at 5 mg/kg, po; assay type: ADME, organism-based
[22] = Intrinsic clearance in mouse liver microsomes; assay type: ADME, Microsome; details: read-out: CLH
[23] = Dose normalized AUC in mouse at 0.5 mg/kg, po; assay type: ADME, organism-based; details: in vivo
[24] = Intrinsic clearance in rat liver microsomes; assay type: ADME, Microsome; details: read-out: CLH
[25] = Protein binding in rat plasma assessed as unbound fraction; assay type: ADME, cell-free
[26] = Terminal half life in mouse at 0.2 mg/kg, iv or 0.5 mg/kg, po; assay type: ADME, organism-based; details: in vivo, read-out: beta t1/2 (converted)
[27] = Protein binding in mouse plasma assessed as unbound fraction; assay type: ADME, cell-free
[28] = Volume of distribution in mouse at 0.2 mg/kg, iv or 0.5 mg/kg, po; assay type: ADME, organism-based; details: in vivo
[29] = Protein binding in human plasma; assay type: ADME, cell-free; details: read-out: PPB

Compound | IC50 (P2X purinoceptor 7 [1]) [nM] | clearance [2] [mL/min/kg] | fraction unbound [3] | Activity [4] [µM] | fraction unbound [5] | IC50 (P2X purinoceptor 7 [6]) [nM] | AUC/dose [7] [ng·h/mL] | Cmax/dose [8] [ng/mL] | microsomal CLint [9] [µL/min/mg] | efflux ratio (MDR [10]) | AUC [11] [ng·h/mL] | AUC [12] [ng·h/mL] | Papp A→B (MDR [13]) [×10⁻⁶ cm/s] | Kp uu [14] | Cmax/dose [15] [ng/mL] | IC50 (P2X purinoceptor 7 [16]) [nM] | fraction unbound [17] | IC50 (P2X purinoceptor 7 [18]) [nM] | fraction unbound [19] | bioavailability [20] [%] | further results
O=C(NCC1CCC(F)(F)CC1)c1c(Cl)ccc2nc(N3CC[C@H](F)C3)ccc12 | 109 | 69.8 | 0.03 | 30 | 0.055 | 8.2 | 238 | 75.1 | 10 | 0.85 | 30.9 | 84.7 | 14.1 to 14.4 | 0.37 | 545 | 5100 | 0.03 to 0.1 | 2040 | 0.03 to 0.1 | 31 | fraction unbound [21]: 0.03; microsomal CLint [22]: 49 µL/min/mg; AUC/dose [23]: 72.9 ng·h/mL; microsomal CLint [24]: 21 µL/min/mg; fraction unbound [25]: 0.041; half-life [26]: 28.8 min; fraction unbound [27]: 0.03; Vd [28]: 1.81 L/kg; fraction unbound [29]: 0.03 to 0.1
O=C(NCC1(O)CCCC(F)(F)C1)c1c(Cl)ccc2nc(N3CC[C@H](F)C3)ccc12 (stereo partly drawn) | 26.7 | 36.8 | 0.11 | > 30 | 0.098 | 18 | 451 | 160 | 20 | 6.3 | 12.6 | 136 | 8.9 to 9 | 0.13 | 738 | 9400 | 0.03 to 0.1 | 6730 | 0.03 to 0.1 | 32 | fraction unbound [21]: 0.079; microsomal CLint [22]: 34 µL/min/mg; AUC/dose [23]: 143 ng·h/mL; microsomal CLint [24]: 23 µL/min/mg; fraction unbound [25]: 0.089; half-life [26]: 25.8 min; fraction unbound [27]: 0.079; Vd [28]: 1.19 L/kg; fraction unbound [29]: 0.03 to 0.1
